The values below are quoted from earlier work in the CATMoS acute toxicity set (Mansouri et al. 2021).

The data set can be described thus: rat acute oral toxicity. Particulars: in vivo.
With `CC(Cc1ccc(O)cc1)NCC(O)c1cc(O)cc(O)c1` (stereo unspecified), the LD50 was 1600 mg/kg.

Consider `CCCCN1CCOCC1`, for which the LD50 is 338 mg/kg. On to `CCOC(C1=NCCCCN1)c1ccccc1` (stereo unspecified), for which the LD50 was 375 mg/kg. For `CN(C)CCCN1c2ccccc2CCc2cc(O)ccc21`, the 50% lethal dose (LD50) is 2980 mg/kg. In the case of `O=C(O[C@H]1C[C@H]2CC[C@@H](C1)[N+]21CCCC1)C(O)(c1ccccc1)c1ccccc1`, the LD50 is 1510 mg/kg. For `COc1ccc2c(c1)OC(C)(C)[C@H](c1ccccc1)[C@H]2c1ccc(OCCBr)cc1`, the LD50 was 500 mg/kg.

With `C=CCC(CC=C)C(=O)O`, the LD50 was 570 mg/kg. Take `COC(=O)c1ccc(C(=O)OC)cc1`: the LD50 was 4390 mg/kg.

For the compound `Nc1cc2c(S(=O)(=O)O)cc(S(=O)(=O)O)cc2cc1S(=O)(=O)O`, the LD50 is 13000 mg/kg. As to `CCOP(=O)(OCC)SCn1nc(C)ccc1=O`, the LD50 was 6.5 mg/kg. Consider `Clc1ccc(C(OCCN2CCCCC2)c2ccccc2)cc1` (stereo unspecified), for which the LD50 is 1990 mg/kg. As to `CN1C(=O)C2C3C=C(C(O)(c4ccccc4)c4ccccn4)C(C3=C(c3ccccc3)c3ccccn3)C2C1=O` (stereo unspecified), the LD50 was 12 mg/kg. As to `Nc1ccc([N+](=O)[O-])c(N)c1`, the LD50 is 4500 mg/kg. `CN1C(=O)CN=C(c2ccccc2F)c2cc([N+](=O)[O-])ccc21`: the LD50 is 415 mg/kg.

Consider `C=CC(C)(O)CC` (stereo unspecified), for which the LD50 is 700 mg/kg. Regarding `CCCn1c2ccccc2c2cc(N)ccc21`, the LD50 is 423 mg/kg.

Take `CCc1ccc(C(=O)c2ccccc2)c(C(=O)O)c1`: the LD50 was 4450 mg/kg. Turning to `O=C1CCc2cc(C=CCCN3CCN(c4ccccc4)CC3)ccc2N1`, the LD50 was 500 mg/kg.

With `O=C(CCC1CCN(Cc2ccccc2)CC1)c1ccc2c(c1)NCCCC2`, the LD50 was 334 mg/kg.

As for `Oc1cccc2cccnc12`, the LD50 was 1200 mg/kg. As to `CC(C)(C)c1cc(Br)c2nc(C(F)(F)F)[nH]c2c1`, the LD50 is 161 mg/kg. Take `O=C(c1ccccc1)N1CCN=C1Nc1c(Cl)cccc1Cl`: the LD50 was 68.1 mg/kg. For the compound `CC(C)C(=O)Nc1ccc([N+](=O)[O-])c(C(F)(F)F)c1`, the LD50 is 787 mg/kg.

`CN(C)C(=O)c1cccc(-c2ccccc2)c1O`: the LD50 is 1900 mg/kg. On to `NC(=O)N1c2ccccc2C=Cc2ccccc21`, for which the LD50 was 1960 mg/kg. As to `CN(CC(=O)N1CCOCC1)Cc1c(Cl)cccc1NC(=O)c1ccccc1`, the LD50 was 4200 mg/kg. Take `CC1(C)SCN(C(=O)C2(Oc3ccc(Cl)cc3)CCCCC2)C1C(=O)O` (stereo unspecified): the LD50 was 4350 mg/kg. On to `CCC(C(=O)N1CCCC1C)(c1ccccc1)c1ccccc1` (stereo unspecified), for which the median lethal dose (LD50) was 326 mg/kg. On to `CCCC1=NN(c2ccccc2)C(=O)C1C=O` (stereo unspecified), for which the LD50 is 765 mg/kg. Turning to `CC(C[N+](C)(C)C)OC(N)=O` (stereo unspecified), the LD50 is 1500 mg/kg. In the case of `Cn1cc(CCc2cc[n+](CCC[N+](C)(C)C)cc2)c2ccccc21`, the LD50 is 200 mg/kg. Regarding `C=C(C)C(=O)CC`, the LD50 was 419 mg/kg.

Turning to `C=CCOC(Cn1ccnc1)c1ccc(Cl)cc1Cl` (stereo unspecified), the LD50 is 227 mg/kg. In the case of `CC(=O)OC1c2cccc(O)c2C(=O)c2c(O)cccc21`, the LD50 is 347 mg/kg.

For the compound `S=C1NCCC(COc2ccccc2)O1` (stereo unspecified), the LD50 is 2200 mg/kg. On to `C#CCCCC#C`, for which the LD50 is 2300 mg/kg.

On to `COc1ccc(C2Sc3ccccc3N(CCN(C)C)C(=O)C2OC(C)=O)cc1` (stereo unspecified), for which the LD50 was 560 mg/kg. As for `O=C(O)c1cn(C2CC2)c2cc(Cl)c(F)cc2c1=O`, the LD50 was 583 mg/kg. In the case of `CCOc1ccc(-n2c(C)nc3ccccc3c2=O)cc1`, the LD50 was 4800 mg/kg.

As for `CC1(C)CC(NCCC(=O)NC2CC(C)(C)NC(C)(C)C2)CC(C)(C)N1`, the LD50 is 4180 mg/kg.

As to `CCCCn1c2ccccc2c2cc(N)ccc21`, the 50% lethal dose (LD50) is 946 mg/kg.

Turning to `CC(=O)OCCCl`, the LD50 is 10 mg/kg. For `CC(=O)C=Cc1ccc2c(c1)OCO2`, the LD50 is 4000 mg/kg. Take `O=C(O)Cc1ccccc1Nc1c(Cl)cc(O)cc1Cl`: the LD50 is 190 mg/kg. As to `COS(=O)(=O)c1ccccc1`, the LD50 is 740 mg/kg. On to `C1COC(NC(C2CC2)C2CC2)=N1`, for which the LD50 was 295 mg/kg. `COc1ccc2c(=O)c(C)c(C)oc2c1CN(C)C`: the LD50 is 7.8 mg/kg. As to `CCCCC(CC)CCl` (stereo unspecified), the LD50 was 7340 mg/kg. Turning to `CC(C)N(Cc1ccccc1)C(=O)C(C)(C)C`, the LD50 is 6000 mg/kg.

Take `Cc1nc(N)sc1C(=O)Nc1ccccc1`: the LD50 was 1410 mg/kg. Regarding `CC(Cc1ccccc1)NC(C#N)c1ccccc1` (stereo unspecified), the LD50 was 37.6 mg/kg.

For `CC(=O)CNC(C)(C)Cc1ccc(Cl)cc1`, the LD50 is 250 mg/kg. Regarding `Nc1ccc2[nH]c3c(c2c1)CCCC3`, the LD50 was 374 mg/kg.

Take `O=C(O)COc1ccc2ccccc2c1`: the LD50 is 600 mg/kg. With `COc1ccc(N)c(S(=O)(=O)O)c1`, the LD50 was 10000 mg/kg. For the compound `CCOP(=S)(OCC)SCn1ncccc1=O`, the LD50 is 2.5 mg/kg. For `C[N+]1(CCCl)CCCO1` (stereo unspecified), the LD50 is 3 mg/kg.

For `CC(C)C(=O)OCc1ccccc1`, the LD50 was 2850 mg/kg. In the case of `CC(=O)OC(C)C(Cl)(Cl)Cl` (stereo unspecified), the LD50 was 900 mg/kg. `O=C(CCCN1CCC2(CCCCC2)CC1)c1ccc(F)cc1`: the LD50 is 200 mg/kg. Take `CCC1(CC)C(=O)C=CN(CN2CCNCC2)C1=O`: the LD50 was 1340 mg/kg.

What is called LD50 is the dose at which mortality reaches 50%.
